Numbers after ± are expanded uncertainties.
Legend:
[1] = Molar enthalpy of transition or fusion; settings: Crystal; DSC
[2] = Crystal; for vapor or sublimation pressure: Calculated from knudsen effusion weight loss
[3] = molar heat capacity at constant pressure; settings: 101.33 kPa, Crystal, Small sample (50 mg) DSC

O=C(O)/C=C\c1ccccc1 [cis-cinnamic acid]
Molar enthalpy of transition or fusion [1]: 4.02 ± 0.239 kcal/mol | vapor or sublimation pressure ([2]; 306.21 K): 8.16e-05 ± 1e-05 kPa | vapor or sublimation pressure ([2]; 308.18 K): 0.0001123 ± 1.1e-05 kPa | vapor or sublimation pressure ([2]; 310.2 K): 0.0001346 ± 1.1e-05 kPa | vapor or sublimation pressure ([2]; 312.15 K): 0.0001819 ± 1.2e-05 kPa | vapor or sublimation pressure ([2]; 314.14 K): 0.0002297 ± 1.3e-05 kPa | vapor or sublimation pressure ([2]; 316.16 K): 0.0002837 ± 1.4e-05 kPa | vapor or sublimation pressure ([2]; 318.1 K): 0.0003808 ± 1.7e-05 kPa | vapor or sublimation pressure ([2]; 320.19 K): 0.0004592 ± 1.9e-05 kPa | vapor or sublimation pressure ([2]; 322.05 K): 0.000572 ± 2.3e-05 kPa | vapor or sublimation pressure ([2]; 324.08 K): 0.0007647 ± 3e-05 kPa | vapor or sublimation pressure ([2]; 326.1 K): 0.0009201 ± 3.6e-05 kPa | Normal melting temperature ([2]; DTA): 67.0 ± 0.7 °C | molar heat capacity at constant pressure ([3]; 257.15 K): 155 ± 5.1 J/K/mol | molar heat capacity at constant pressure ([3]; 258.15 K): 155.9 ± 5.2 J/K/mol | molar heat capacity at constant pressure ([3]; 259.15 K): 156 ± 5.2 J/K/mol | molar heat capacity at constant pressure ([3]; 260.15 K): 156.5 ± 5.2 J/K/mol | molar heat capacity at constant pressure ([3]; 261.15 K): 156.9 ± 5.2 J/K/mol | molar heat capacity at constant pressure ([3]; 262.15 K): 157.5 ± 5.2 J/K/mol | molar heat capacity at constant pressure ([3]; 263.15 K): 158.1 ± 5.2 J/K/mol | molar heat capacity at constant pressure ([3]; 264.15 K): 158.7 ± 5.3 J/K/mol | molar heat capacity at constant pressure ([3]; 265.15 K): 159.1 ± 5.3 J/K/mol | molar heat capacity at constant pressure ([3]; 266.15 K): 159.7 ± 5.3 J/K/mol | molar heat capacity at constant pressure ([3]; 267.15 K): 160.2 ± 5.3 J/K/mol | molar heat capacity at constant pressure ([3]; 268.15 K): 160.8 ± 5.3 J/K/mol | molar heat capacity at constant pressure ([3]; 269.15 K): 161.2 ± 5.3 J/K/mol | molar heat capacity at constant pressure ([3]; 270.15 K): 161.6 ± 5.4 J/K/mol | molar heat capacity at constant pressure ([3]; 271.15 K): 162.2 ± 5.4 J/K/mol | molar heat capacity at constant pressure ([3]; 272.15 K): 163 ± 5.4 J/K/mol | molar heat capacity at constant pressure ([3]; 273.15 K): 163.3 ± 5.4 J/K/mol | molar heat capacity at constant pressure ([3]; 274.15 K): 163.9 ± 5.4 J/K/mol | molar heat capacity at constant pressure ([3]; 275.15 K): 164.3 ± 5.5 J/K/mol | molar heat capacity at constant pressure ([3]; 276.15 K): 165.3 ± 5.5 J/K/mol | molar heat capacity at constant pressure ([3]; 277.15 K): 165.8 ± 5.5 J/K/mol | molar heat capacity at constant pressure ([3]; 278.15 K): 166.2 ± 5.5 J/K/mol | molar heat capacity at constant pressure ([3]; 279.15 K): 166.7 ± 5.5 J/K/mol | molar heat capacity at constant pressure ([3]; 280.15 K): 167.3 ± 5.6 J/K/mol | molar heat capacity at constant pressure ([3]; 281.15 K): 167.9 ± 5.6 J/K/mol | molar heat capacity at constant pressure ([3]; 282.15 K): 168.5 ± 5.6 J/K/mol | molar heat capacity at constant pressure ([3]; 283.15 K): 169.1 ± 5.6 J/K/mol | molar heat capacity at constant pressure ([3]; 284.15 K): 169.5 ± 5.6 J/K/mol | molar heat capacity at constant pressure ([3]; 285.15 K): 170.4 ± 5.7 J/K/mol | molar heat capacity at constant pressure ([3]; 286.15 K): 170.8 ± 5.7 J/K/mol | molar heat capacity at constant pressure ([3]; 287.15 K): 171.4 ± 5.7 J/K/mol | molar heat capacity at constant pressure ([3]; 288.15 K): 171.9 ± 5.7 J/K/mol | molar heat capacity at constant pressure ([3]; 289.15 K): 172.6 ± 5.7 J/K/mol | molar heat capacity at constant pressure ([3]; 290.15 K): 173.2 ± 5.7 J/K/mol | molar heat capacity at constant pressure ([3]; 291.15 K): 173.9 ± 5.8 J/K/mol | molar heat capacity at constant pressure ([3]; 292.15 K): 174.5 ± 5.8 J/K/mol | molar heat capacity at constant pressure ([3]; 293.15 K): 175.1 ± 5.8 J/K/mol | molar heat capacity at constant pressure ([3]; 294.15 K): 175.9 ± 5.8 J/K/mol | molar heat capacity at constant pressure ([3]; 295.15 K): 176.5 ± 5.9 J/K/mol | molar heat capacity at constant pressure ([3]; 296.15 K): 176.9 ± 5.9 J/K/mol | molar heat capacity at constant pressure ([3]; 297.15 K): 177.6 ± 5.9 J/K/mol | molar heat capacity at constant pressure ([3]; 298.15 K): 178.1 ± 5.9 J/K/mol | molar heat capacity at constant pressure ([3]; 299.15 K): 178.7 ± 5.9 J/K/mol | molar heat capacity at constant pressure ([3]; 300.15 K): 179.1 ± 5.9 J/K/mol | molar heat capacity at constant pressure ([3]; 301.15 K): 179.9 ± 6 J/K/mol | molar heat capacity at constant pressure ([3]; 302.15 K): 180.6 ± 6 J/K/mol | molar heat capacity at constant pressure ([3]; 303.15 K): 181.3 ± 6 J/K/mol | molar heat capacity at constant pressure ([3]; 304.15 K): 182.1 ± 6 J/K/mol | molar heat capacity at constant pressure ([3]; 305.15 K): 183 ± 6.1 J/K/mol | molar heat capacity at constant pressure ([3]; 306.15 K): 183.7 ± 6.1 J/K/mol | molar heat capacity at constant pressure ([3]; 307.15 K): 184.6 ± 6.1 J/K/mol | molar heat capacity at constant pressure ([3]; 308.15 K): 185.3 ± 6.1 J/K/mol | molar heat capacity at constant pressure ([3]; 309.15 K): 185.9 ± 6.2 J/K/mol | molar heat capacity at constant pressure ([3]; 310.15 K): 186.8 ± 6.2 J/K/mol | molar heat capacity at constant pressure ([3]; 311.15 K): 187.9 ± 6.2 J/K/mol | molar heat capacity at constant pressure ([3]; 312.15 K): 188.6 ± 6.3 J/K/mol | molar heat capacity at constant pressure ([3]; 313.15 K): 189.3 ± 6.3 J/K/mol | molar heat capacity at constant pressure ([3]; 314.15 K): 190.2 ± 6.3 J/K/mol | molar heat capacity at constant pressure ([3]; 315.15 K): 191.3 ± 6.3 J/K/mol | molar heat capacity at constant pressure ([3]; 316.15 K): 192.3 ± 6.4 J/K/mol | molar heat capacity at constant pressure ([3]; 317.15 K): 193.5 ± 6.4 J/K/mol | molar heat capacity at constant pressure ([3]; 318.15 K): 194.5 ± 6.5 J/K/mol | molar heat capacity at constant pressure ([3]; 319.15 K): 195.9 ± 6.5 J/K/mol | molar heat capacity at constant pressure ([3]; 320.15 K): 197.5 ± 6.6 J/K/mol | molar heat capacity at constant pressure ([3]; 321.15 K): 199.1 ± 6.6 J/K/mol | molar heat capacity at constant pressure ([3]; 322.15 K): 201.1 ± 6.7 J/K/mol

From the NIST ThermoML archive (doi:10.1016/j.jct.2015.12.014)
